Measurements from patent US7968535B2, “Use of azapaullones for preventing and treating pancreatic autoimmune disorders” (Develogen Atkiengesellschaft, priority 2005, dated 2011).
One block for each molecule: values may come before it.

Columns and labels:
human GSK3 = experiment: IC50 Profiler Express kinase assay; format: biochemical; conditions: 10-point curves in duplicate
Description: Experiments were carried out by Upstate Ltd. according to the protocols described in KinaseProfiler™ Assay Protocols, IC50 Profiler Express™ (10-point curves in duplicate) Fall 2004 by Ustate Cell Signaling solutions.

INS-1E cells [1] = experiment: Ins-1E cell proliferation assay (BrdU incorporation); format: cell-based, rat
Description: The proliferation rate of Ins-1E cells was determined by monitoring DNA synthesis using a 5-bromo-2′-deoxyuridine (BrdU) incorporation assay. BrdU is a halogenated nucleotide analogue of thymidine that is incorporated into DNA during the S-phase of the cell cycle. Pulse-labeling of DNA with BrdU and subsequent immunohistochemical detection of labeled nuclei was used to study the rate of cell proliferation. The treatment of INS-1E cells with 4-Azakenpaullone for 24 hours increases BrdU incorporation of Ins-1E cells in a concentration dependent manner, reaching a maximum of about 1.4 fold between 5 μM and 10 μM 4-AKP.
The proliferation of Ins-1E insulinoma cells was determined by monitoring DNA synthesis as an indirect parameter of cell proliferation. The incorporation of the thymidine analogue 5-bromo-2′-deoxyuridine (BrdU) during replication into cellular DNA was used to label the DNA of mitotically active cells. After its incorporation into DNA, BrdU was detected by immunoassay.
(§1) 10,000 Ins-1E cells were seeded per 96-well (black 96-well tissue culture plates, Falcon #353948) in 100 μl culture medium (RPMI 1640 containing 11 mM glucose, 5% FCS, 10 mM HEPES, 50 μM 2-mercaptoethanol, 1 mM MEM sodium pyruvate, 100 U/ml penicillin, 100 μg/ml streptomycin) and cultivated at 37° C., 5% CO2 in humidified atmosphere for 3 days. Media was changed to 100 μl starvation medium (culture medium with only 5 mM glucose, 1% FCS) and the cells were re-incubated for 1 day. Then media was exchanged to starvation medium containing test substances and the cells were further incubated for 24 h. For the last 4 hours BrdU was added to reach a concentration of 10 μM. Cell proliferation ELISA (Cell Proliferation ELISA, BrdU, chemiluminescence, Roche, cat. No. 1669915) was performed according to the manufacturers guidelines.

INS-1E cells [2] = experiment: Glucolipotoxicity induced apoptosis of INS-1E cells (overall assessment); format: cell-based, rat; conditions: palmitate and glucose, 24 hours
Description: (§2) The effects of the substance on cell viability, cell growth and specific apoptotic events such as caspases activity and DNA-fragmentation was monitored. INS-1E cell apoptosis was induced by treatment of cell cultures with toxic concentrations of glucose and palmitate for 24 hours. The substance of interest was added to the medium 1 hour prior to the addition of the toxic agents.
The effects of the test compounds on beta cell function were assessed using biological assays monitoring cellular metabolic activity as well as specific apoptotic events in Ins-1E cells.
as §1, with “substances.” for “substances and the cells were further incubated for 24 h. For the last 4 hours BrdU was added to reach a concentration of 10 μM. Cell proliferation ELISA (Cell Proliferation ELISA, BrdU, chemiluminescence, Roche, cat. No. 1669915) was performed according to the manufacturers guidelines.”
(§3) Apoptosis of Ins-1E cells was induced by addition of a combination of BSA coupled palmitate and glucose (pal/gluc) or a combination of cytokines (cyt) 1 hour after starting the treatment with test substances: pal/gluc: 0.3 mM palmitate:BSA (palmitic acid sodium salt:fatty acid free BSA 6:1) and 25 mM glucose. 10×cyt: 0.04 ng/ml IL-1β and 1 ng/ml IFNγ. The cells were further incubated with test substances and apoptotic inducer for 24 hours.

INS-1E cells [3] = experiment: DNA-fragmentation ELISA in glucose/palmitate stressed cells; format: cell-based, rat; conditions: glucose/palmitate 24 hours; for reduction of cytosolic DNA-fragments: 20 μM
Description: as §2
DNA-fragmentation is a comparatively late apoptotic event comprising storage of nucleosomal DNA-fragments as mono- and oligo nucleosomes in the cytoplasm. The incubation of INS1-E cells with high concentrations of glucose and palmitate for 24 hours leads to DNA breakdown and the accumulation of nucleosomal DNA fragments in the cytoplasm. The detectable amount of cytosolic nucleosomal DNA fragments was reduced by about 17%, when cells were treated with the apoptosis inducing agents in combination with 10 μM 4-AKP.
as §1, with “substances.” for “substances and the cells were further incubated for 24 h. For the last 4 hours BrdU was added to reach a concentration of 10 μM. Cell proliferation ELISA (Cell Proliferation ELISA, BrdU, chemiluminescence, Roche, cat. No. 1669915) was performed according to the manufacturers guidelines.”
as §3
DNA-fragmentation is a late apoptotic event comprising storage of nucleosomal DNA-fragments as mono- and oligo nucleosomes in the cytoplasm. Their concentration was determined by ELISA (Cell death detection ELISA, Roche, cat. No. 1774425) according to the manufacturers guidelines.

INS-1E cells [4] = experiment: Cell number by CyQuant assay; format: cell-based, rat; conditions: 24 hours
Description: as §2
as §1, with “substances. […]” for “substances and the cells were further incubated for 24 h. For the last 4 hours BrdU was added to reach a concentration of 10 μM. Cell proliferation ELISA (Cell Proliferation ELISA, BrdU, chemiluminescence, Roche, cat. No. 1669915) was performed according to the manufacturers guidelines.”
Cell number was measured by staining of cellular DNA with CyQuant dye (CyQuant Cell Proliferation Assay Kit, Molecular Probes, cat. No. C-7026) which becomes fluorescent when bound to DNA. […]

INS-1E cells [5] = experiment: Caspase activity assay in glucose/palmitate stressed cells; format: cell-based, rat
Description: as §2
Caspase activation is a characteristic of early apoptotic cells. The experiment was carried out as described above with the exception that the caspases activity assay was applied instead of the DNA-fragmentation assay (see Example 3 for details).
as §1, with “substances.” for “substances and the cells were further incubated for 24 h. For the last 4 hours BrdU was added to reach a concentration of 10 μM. Cell proliferation ELISA (Cell Proliferation ELISA, BrdU, chemiluminescence, Roche, cat. No. 1669915) was performed according to the manufacturers guidelines.”
as §3
Caspase activity is a characteristic of early apoptotic cells. Their activity was quantified by an enzymatic assay (homogeneous caspases assay, Roche, cat. No. 03 005 372 001). Caspase activity was measured 3 hours after addition of caspases substrate according to the manufacturers guidelines.

INS-1E cells [6] = experiment: Viability by Alamar Blue reduction under glucose/palmitate; format: cell-based, rat; conditions: 24 hours
Description: as §2
as §1, with “substances. […]” for “substances and the cells were further incubated for 24 h. For the last 4 hours BrdU was added to reach a concentration of 10 μM. Cell proliferation ELISA (Cell Proliferation ELISA, BrdU, chemiluminescence, Roche, cat. No. 1669915) was performed according to the manufacturers guidelines.”
Viability was assessed by mitochondric reduction of the non toxic dye Alamar Blue (Bioscource, cat. No. DAL1025). The dye was added to the cells 4 hours before read-out according to the manufacturers guidelines. Basal fluorescence was measured immediately to be subtracted from the fluorescence after 4 hours. […]

[7] = test system: cyclin-dependent kinases (CDKs); experiment: KinaseProfiler biochemical kinase activity assays
Description: (§4) Experiments were carried out by Upstate Ltd. according to the protocols described in KinaseProfiler™ Assay Protocols Fall 2004 by Ustate Cell Signaling solutions.
(§5) Compounds 10c and e are structurally very similar to 1-Azakenpaullone and differ only by one substituent at position 9 of the D ring from their template 1-Azakenpaullone. […] These kinases were selected among about 250 different kinases based on their structural or functional similarity to GSK3, e.g. all available members of the CDK family were included in the survey because CDKs are most similar to GSK3 and several kinase inhibitors are known that inhibit members of both families. The direct comparison of different compounds in such an experiment provides information on the relative selectivity of the respective compounds.

[8] = test system: panel of 28 protein kinases; experiment: KinaseProfiler biochemical kinase activity assays; conditions: tested in parallel with 1-Azakenpaullone
Description: as §4, §5

Structure (SMILES): O=C1Cc2c([nH]c3ccc(Br)cc23)-c2ncccc2N1 [1-Azakenpaullone, reference compound]
inhibition of human GSK3 (human GSK3): potent inhibitor

Structure (SMILES): O=C1Cc2c([nH]c3ccc(Br)cc23)-c2cccnc2N1 [4-Azakenpaullone, reference compound]
BrdU incorporation relative to untreated controls (maximum) (INS-1E cells [1]; 24 hours, maximum between 5 μM and 10 μM): about 1.4 fold | effect on glucolipotoxicity induced apoptosis (INS-1E cells [2]): slightly antagonizes apoptotic processes | reduction of cytosolic nucleosomal DNA fragments (INS-1E cells [3]; 10 μM): about 17% | increase in cell-number relative to untreated controls (INS-1E cells [4]): 1.2 fold | reduction of caspase activity (INS-1E cells [5]; 10 μM): 18% | viability of Ins-1E cells subjected to apoptosis inducing concentrations of glucose and palmitate (INS-1E cells [6]): slightly improves the viability

Structure (SMILES): COc1ccc2[nH]c3c(c2c1)CC(=O)Nc1cccnc1-3 [Compound 10a, 9-Methoxy-7,12-dihydro-pyrido[3′,2′:2,3]azepino[4,5-b]indole-6(5H)-one]
proliferation of INS-1E cells (in words) (INS-1E cells [1]): small effect | BrdU incorporation relative to untreated controls (maximum) (INS-1E cells [1]; at about 10 μM): about 1.2 fold | effect on glucolipotoxicity induced apoptosis (INS-1E cells [2]): moderately prevents glucolipotoxicity induced apoptosis | reduction of cytosolic DNA-fragments (INS-1E cells [3]): 44% | reduction of caspase activity (INS-1E cells [5]; 20 μM): 22%

Structure (SMILES): O=C1Cc2c([nH]c3ccc(O)cc23)-c2ncccc2N1 [Compound 10d, 9-Hydroxy-7,12-dihydropyrido[3′,2′:2,3]azepino[4,5-b]indole-6(5H)-one]
effect on glucolipotoxicity induced apoptosis (INS-1E cells [2]): slightly effects glucolipotoxicity induced apoptosis | reduction of cytosolic DNA-fragments (INS-1E cells [3]): 23% | reduction of caspase activity (INS-1E cells [5]; 20 μM): 27%

inhibition of cyclin-dependent kinases (CDKs) [7]: significantly inhibits | kinase selectivity / activity profile [8]: selective kinase inhibitors
Structure (SMILES): O=C1Cc2c([nH]c3ccc(Cl)cc23)-c2ncccc2N1 [Compound 10e, 9-Chloro-7,12-dihydropyrido[3′,2′:2,3]azepino[4,5-b]indole-6(5H)-one]
BrdU incorporation relative to untreated controls (maximum) (INS-1E cells [1]; maximum between 1 μM and 10 μM): about 1.7 fold | effect on glucolipotoxicity induced apoptosis (INS-1E cells [2]): slightly prevents glucolipotoxicity induced apoptosis | reduction of cytosolic DNA-fragments (INS-1E cells [3]): 23% | reduction of caspase activity (INS-1E cells [5]; 20 μM): 16%

Structure (SMILES): O=C1Cc2c([nH]c3ccc(C(F)(F)F)cc23)-c2ncccc2N1 [Compound 10l, 9-Trifluoromethyl-7,12-dihydropyrido[3′,2′:2,3]azepino[4,5-b]indol-6(5H)-one]
BrdU incorporation relative to untreated controls (maximum) (INS-1E cells [1]; maximum between 1 μM and 5 μM): about 1.4 fold | effect on glucolipotoxicity induced apoptosis (INS-1E cells [2]): significantly effects glucolipotoxicity induced apoptosis
